Where a name gives a salt, the structure may show the parent alone.

The source of these data is US8535950B2, “Use of perfluoropolymer submicrometric latexes in the determination of molecular interactions by laser light scattering (LLS)” (Solvay Solexis S.p.A., priority 2005, dated 2013).

The assay has as its system peptide sequence L-Lys-D-Ala-D-Ala. The assay is described as follows: Binding constant by laser light scattering (LLS) on perfluoropolymer latex particles coated with receptor-ended surfactant. An excerpt:
More specifically the use comprises the following steps: • a) addition to a colloidal aqueous suspension or latex of particles having an average diameter between 5 and 200 nm, preferably between 40 and 80 nm, formed of a perfluorinated, semicrystalline or amorphous polymer, of a sequence of known volumes of an aqueous solution of a mixture containing from 50% to 99.5% by weight of an amphiphylic non ionic surfactant and from 0.5 to 50% by weight of a surfactant ended with a receptor, measuring after each addition the intensity of the scattered light by the suspension by Laser Scattering Light (LLS) and reporting it on a diagram in function of the progressively added solution volume, until reaching an asymptotic value (Ir); • b) addition to the suspension obtained in step a) of a sequence of known volumes of a ligand aqueous solution, measuring after each addition the intensity of the scattered light by the suspension by Laser Scattering Light (LLS) its reporting on a diagram in function of the progressively added solution volume (expressed as molar concentration [T0]), until reaching an asymptotic value and fitting the scattered light intensity data (I) in function of the ligand additions ([T0]) with formula (1) to obtain the receptor-ligand binding constant (K), wherein formula (1) is: […]

In the case of `CN[C@H](CC(C)C)C(=O)N[C@H]1C(=O)N[C@@H](CC(N)=O)C(=O)N[C@H]2C(=O)N[C@H]3C(=O)N[C@H](C(=O)N[C@H](C(=O)O)c4cc(O)cc(O)c4-c4cc3ccc4O)[C@H](O)c3ccc(c(Cl)c3)Oc3cc2cc(c3O[C@@H]2O[C@H](CO)[C@@H](O)[C@H](O)[C@H]2O[C@H]2C[C@](C)(N)[C@H](O)[C@H](C)O2)Oc2ccc(cc2Cl)[C@H]1O` [Vancomycin, Vancomycin hydrochloride hydrate], the receptor-ligand binding constant amounted to 1.5e+06 mol⁻¹ (Example 1: 0.1% latex, 78 nm particles of TFE copolymer with 40% by moles perfluoromethylvinylether, 0.4 millimole Vancomycin solution in 6 microlitre portions, Langmuir fit) and 1.1e+06 mol⁻¹ (Example 2: 0.1% latex, 40 nm particles of TFE copolymer with 30% by moles TTD, 0.9 millimolar Vancomycin in 6 microlitre portions).
